pEC50, pIC50: −log10 of the molar value.
Experiments:
Assay type in all cases: cell-based
[1] = target: T1, GR (Homo sapiens, UniProt P04150); experiment: MMTV-Luc induction reporter assay in AD293 cells; settings: 16 h
T1 construct: expressed in transfected cells; host or cells: AD293
T1 sequence (P04150 1-777): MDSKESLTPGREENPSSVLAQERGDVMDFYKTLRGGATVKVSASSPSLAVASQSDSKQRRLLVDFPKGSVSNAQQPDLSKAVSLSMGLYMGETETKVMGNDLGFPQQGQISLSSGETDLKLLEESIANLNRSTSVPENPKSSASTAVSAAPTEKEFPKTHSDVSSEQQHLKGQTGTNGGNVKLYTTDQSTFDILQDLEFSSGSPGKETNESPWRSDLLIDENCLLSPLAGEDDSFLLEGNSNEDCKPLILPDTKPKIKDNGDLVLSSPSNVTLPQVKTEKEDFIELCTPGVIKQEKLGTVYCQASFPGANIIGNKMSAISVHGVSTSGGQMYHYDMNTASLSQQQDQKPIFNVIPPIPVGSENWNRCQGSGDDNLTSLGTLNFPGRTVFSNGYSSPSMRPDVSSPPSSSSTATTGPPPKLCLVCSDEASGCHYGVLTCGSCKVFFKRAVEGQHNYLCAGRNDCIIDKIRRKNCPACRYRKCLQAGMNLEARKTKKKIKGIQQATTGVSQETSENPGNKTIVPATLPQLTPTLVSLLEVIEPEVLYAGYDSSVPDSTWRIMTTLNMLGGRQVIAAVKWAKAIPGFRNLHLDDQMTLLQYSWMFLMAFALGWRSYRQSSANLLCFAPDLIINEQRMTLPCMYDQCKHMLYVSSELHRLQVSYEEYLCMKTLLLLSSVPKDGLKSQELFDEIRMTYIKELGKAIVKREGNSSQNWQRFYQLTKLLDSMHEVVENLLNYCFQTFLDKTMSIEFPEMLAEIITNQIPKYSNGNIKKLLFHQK
Procedure: (§1) Similar to previous reports, for induction 100 ng pHHLuc (MMTV-Luc) plasmid, 0.1 ng pRShGR together with 5 ng phRGtkRenilla were transfected by X-tremeGENE 9 (Roche) into AD293 cells per well in 24-well plate. For transrepression, 10 ng AP-1-Luc or 10ng pNF-κB-luc, 100 ng pRShGR and 5 ng phRGtkRenilla were transfected into AD293 cells per well. We used the same transfection protocol for the MR and PR assays, except of the use of 0.1 ng MR or PR plasmid to substitute GR. One day after transfection, for induction, cells were directly treated by steroids for 16 h; for repression, cells were treated with either PMA at 0.6 ng ml^–1 (for AP-1 reporter) or TNFα at 2 ng ml^–1 (for NF-κB reporter), together with various steroids. Cells were collected by addition of 1× Passive Lysis Buffer (Promega, Madison, WI, USA), and luciferase activity was assayed by the Dual-Glo Luciferase system (Promega). Data were plotted as firefly luciferase activity normalized to Renilla luciferase activity in Relative Luciferase Units.

[2] = target: T2, MR (Homo sapiens, UniProt P08235); experiment: MR reporter assay (off-target activity); settings: steroid 1 μM; percent of 1 μM corticosterone
T2 construct: expressed in transfected cells; host or cells: AD293
T2 sequence (P08235 1-984): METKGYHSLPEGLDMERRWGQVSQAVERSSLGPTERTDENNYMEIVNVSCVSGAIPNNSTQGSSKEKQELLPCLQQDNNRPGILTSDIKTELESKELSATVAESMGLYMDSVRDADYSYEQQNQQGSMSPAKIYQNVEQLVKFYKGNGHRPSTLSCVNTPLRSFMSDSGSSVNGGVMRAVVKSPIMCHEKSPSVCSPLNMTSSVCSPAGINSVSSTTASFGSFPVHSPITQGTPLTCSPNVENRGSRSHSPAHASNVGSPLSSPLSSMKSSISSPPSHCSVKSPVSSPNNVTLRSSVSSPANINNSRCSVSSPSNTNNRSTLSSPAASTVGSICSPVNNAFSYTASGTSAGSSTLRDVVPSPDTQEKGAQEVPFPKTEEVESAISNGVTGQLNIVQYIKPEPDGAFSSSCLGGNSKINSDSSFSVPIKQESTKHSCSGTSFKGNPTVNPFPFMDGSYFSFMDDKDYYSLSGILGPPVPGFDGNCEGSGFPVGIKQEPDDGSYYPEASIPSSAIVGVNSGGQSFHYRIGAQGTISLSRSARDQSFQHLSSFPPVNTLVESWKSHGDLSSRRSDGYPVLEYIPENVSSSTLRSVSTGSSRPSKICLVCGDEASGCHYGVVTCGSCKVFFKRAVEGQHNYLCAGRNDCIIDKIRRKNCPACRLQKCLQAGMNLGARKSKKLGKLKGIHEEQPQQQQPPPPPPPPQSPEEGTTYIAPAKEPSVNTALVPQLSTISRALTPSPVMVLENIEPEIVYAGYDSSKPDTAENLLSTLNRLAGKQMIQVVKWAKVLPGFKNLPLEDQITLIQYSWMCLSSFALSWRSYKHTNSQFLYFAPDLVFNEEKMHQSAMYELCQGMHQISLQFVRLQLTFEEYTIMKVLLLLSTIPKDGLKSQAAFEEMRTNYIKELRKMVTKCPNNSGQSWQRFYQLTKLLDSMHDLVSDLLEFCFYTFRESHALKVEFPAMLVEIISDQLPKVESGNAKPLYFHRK
Procedure: as §1

[3] = system: IL-6 release from A549 cells; experiment: Cytokine inhibition assay, IL-6 release from A549 cells; settings: Homo sapiens, TNFα 2 ng ml^-1, read-out: IC50 (suppression of IL-6 release)
Procedure: A549 cells into 24-well plates were split at 40 000 cells/well. After 1 day growth, cells were treated with various steroids 1 h before overnight induction of inflammation by 2 ng ml^–1 TNFα according to literature. Sixteen hours after treatment, cell culture supernatants were subjected to anti-IL-6 Elisa (R&D Quantikine Elisa Human IL-6 Kit) according to the manual.

Compound: CON(C)C(=O)C1(OC(=O)c2ccco2)C(C)CC2C3CC(F)C4=Cc5c(cnn5-c5ccccc5)CC4(C)C3(F)C(O)CC21C (stereo not drawn) [VSGC12]
- pEC50 [1]: 9.29
- MR activity [2]: higher MR activity than VSG22 and FP, but a lower activity than MF and a similar activity (difference not statistically significant) as FF
- pIC50 [3]: 10.30
